What all share (type): functional
For assay [1], the target named is T1, fMet-Leu-Phe receptor (Homo sapiens, UniProt P21462).
T1 sequence (P21462 whole entry): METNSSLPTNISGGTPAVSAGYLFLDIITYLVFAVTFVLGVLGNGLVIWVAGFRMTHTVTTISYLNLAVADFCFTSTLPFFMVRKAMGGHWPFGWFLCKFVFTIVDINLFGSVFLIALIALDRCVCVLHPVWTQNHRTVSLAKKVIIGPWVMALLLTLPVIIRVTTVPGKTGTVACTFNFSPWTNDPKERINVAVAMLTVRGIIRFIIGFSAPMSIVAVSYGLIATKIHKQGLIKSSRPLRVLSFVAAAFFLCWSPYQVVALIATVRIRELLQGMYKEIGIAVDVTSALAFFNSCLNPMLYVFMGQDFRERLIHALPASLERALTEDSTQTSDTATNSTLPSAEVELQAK
Put plainly: (§1) Agonist activity at FPR1 in human neutrophils assessed as increase in calcium mobilization by FLIPR assay.

The target in assay [2] is T1, fMet-Leu-Phe receptor. The experiment in a line: (§2) Intrinsic activity at FPR1 in human neutrophils assessed as increase in calcium mobilization by FLIPR assay relative to fMLF. Background: Calcium flux is commonly read through the fluorescence of an indicator in the cells.
Assay [3] concerns the target T2, fMet-Leu-Phe receptor (Homo sapiens) (UniProt P21462).
T2 sequence (whole entry): T1 sequence (P21462 whole entry)
Described as §2.

Assay [4] addresses T1, fMet-Leu-Phe receptor. The experiment in a line: Antagonist activity at FPR1.
Assay [5] addresses T2, fMet-Leu-Phe receptor (Homo sapiens). The experiment in a line: Antagonist activity at FPR1 in human neutrophils assessed as inhibition of fMLF-stimulated calcium mobilization at 50 uM by FLIPR assay.
For assay [6] the target is unchanged. The assay is described as §1. Set-up: concentration or dose not given beside the values. Particulars: concentration not given here.

A word on the EC50: it is the concentration needed to bring the measured effect to its halfway point. As usually defined, the IC50 is the concentration that gives 50% inhibition. On to `CCOc1ccc2oc(C(=O)NC(CCSC)c3nc4cnccc4[nH]3)c(C)c2c1` (configuration not stated), for which the EC50 at fMet-Leu-Phe receptor [1] is 1580 nM. In addition, the IC50 at fMet-Leu-Phe receptor [2] was 1000 nM. For the same compound, in assay [3], the Intrinsic activity amounted to 0.8.
With `Cc1cccc(C)c1NC(=O)C(NC(=O)c1ccccc1O)c1ccc(Cl)cc1` (configuration not stated), the IC50 on fMet-Leu-Phe receptor [2] is 794 nM.
Usually Ki stands for the equilibrium dissociation constant of an inhibitor or competing ligand from its target. Consider `CCc1cc2c(=O)c(-c3nc4ccccc4n3C)c(C)oc2cc1OC(C)=O`, for which affinity on fMet-Leu-Phe receptor [4] was put at a Ki of 100 nM.
By inhibition is commonly meant the drop in the measured response relative to a control, in per cent. Regarding `COc1ccccc1C(=O)NC(CCSC)c1nc2ccccc2[nH]1` (configuration not stated), the inhibition in assay [5] is below 25%.
Consider `CSCCC(NC(=O)c1occc1C)c1nc2ccccc2[nH]1` (configuration not stated), for which, on fMet-Leu-Phe receptor [2], the IC50 is 3980 nM.
As for `O=C(NC(C(=O)NC1CCCCC1)c1ccc(Cl)cc1)c1ccccc1O` (configuration not stated), on fMet-Leu-Phe receptor [2], the IC50 was 2510 nM.
For `CSCCC(NC(=O)c1ccccc1)c1nc2ccccc2n1Cc1ccc(C#N)cc1` (configuration not stated), in assay [6], the inhibition was below 25%. Further, the IC50 at fMet-Leu-Phe receptor [2] is 316 nM.
For `Cc1cccc(C)c1NC(=O)C(NC(=O)c1ccccc1O)c1cn(C)cn1` (configuration not stated), the IC50 on fMet-Leu-Phe receptor [2] is 1580 nM.
`CSCCC(NC(=O)Cc1ccccc1)c1nc2ccccc2[nH]1` (configuration not stated): the inhibition in assay [5] is below 25%.
`CSCCC(NC(=O)C1CCCCC1)c1nc2ccccc2[nH]1` (configuration not stated): the IC50 on fMet-Leu-Phe receptor [2] was 2510 nM.
Consider `CCOc1ccc2oc(C(=O)NC(CCSC)c3nc4ncccc4[nH]3)c(C)c2c1` (configuration not stated), for which the inhibition in assay [6] was below 25%.
In the case of `CCC[C@H](NC(=O)c1oc2ccc(OCC)cc2c1C)c1nc2ccccc2[nH]1`, at fMet-Leu-Phe receptor [2], the IC50 was 1000 nM.
With `CCOc1ccc2oc(C(=O)N[C@H](CSC)c3nc4ccccc4[nH]3)c(C)c2c1`, on fMet-Leu-Phe receptor [2], the IC50 is 631 nM.
Take `CC(C)C(C(=O)O)N1C(=O)/C(=C2/C(=O)N(C)c3ccccc32)SC1=S` (configuration not stated): half-maximal inhibition on fMet-Leu-Phe receptor [4] (IC50) was put at 5010 nM.
`CSCCC(NC(=O)c1ccccc1)c1nc2ccccc2[nH]1` (configuration not stated): at fMet-Leu-Phe receptor [2], the IC50 is 5010 nM.
Turning to `Cc1cccc(C)c1NC(=O)C(NC(=O)c1nc2ccccc2[nH]c1=O)c1ccc(Cl)cc1` (configuration not stated), on fMet-Leu-Phe receptor [2], the IC50 was 2510 nM.
On the same count and under the same terms, as for `CSCCC(NC(=O)c1sccc1Cl)c1nc2ccccc2[nH]1` (configuration not stated), the figure is 2000 nM; as for `CSCCC(NC(=O)c1oc2ccccc2c1C)c1nc2ccccc2[nH]1` (configuration not stated), 3980 nM; as for `Cc1cccc(C)c1NC(=O)C(NC(=O)c1ccccc1O)C1CCCCC1` (configuration not stated), 794 nM.

Values taken from ChEMBL document CHEMBL1770079, “Discovery of small molecule human FPR1 receptor antagonists” (Bioorg Med Chem Lett, 2011).
